Measured values: publication PMC12114840, “Exploring the Anticancer Properties of 1,2,3-Triazole-Substituted Andrographolide Derivatives” (Pharmaceuticals, 2025)

What was measured:
[1] = test system: HCT116 cells (colorectal adenocarcinoma); assay: Sulforhodamine B (SRB) antiproliferative assay, HCT116; type: cell-based; conditions: Homo sapiens, HCT-116, HCT116, 48 h, mean ± SEM of four to six independent experiments
Description: (§1) The antiproliferative properties of andrographolide and all prepared derivatives (2–26) were evaluated against a panel of different cancer cell lines, including human pancreatic ductal adenocarcinoma (PANC-1), colorectal adenocarcinoma (HCT116), melanoma (A375), breast adenocarcinoma (MCF-7) and a non-tumorigenic colon (CCD-18Co) cell line using the sulforhodamine B assay.
(§2) Human breast adenocarcinoma MCF-7, pancreatic ductal adenocarcinoma PANC-1, melanoma A375, and non-tumorigenic colon CCD-18Co cell lines were purchased from ATCC (Rockville, MD, USA). Human colorectal adenocarcinoma HCT116 cells were kindly provided by B. Vogelstein (The Johns Hopkins Kimmel Cancer Center, Baltimore, MD, USA). Tumor cells were routinely cultured in RPMI-1640 medium with UltraGlutamine from Biowest (VWR, Carnaxide, Portugal) supplemented with 10% fetal bovine serum (FBS) from Biowest (VWR, Carnaxide, Portugal), except for the PANC-1 cells, which were grown in DMEM (4.5 g/L glucose) with stable L-glutamine and sodium pyruvate and supplemented with 10% FBS. The non-tumorigenic CCD-18Co cells were cultured in EMEM (Lonza, VWR, Carnaxide, Portugal), supplemented with 10% FBS. All cells were incubated at 37 °C in a humidified atmosphere of 5% CO2. Routine mycoplasma testing was performed using the MycoAlert™ PLUS mycoplasma detection kit (Lonza).
(§3) For the evaluation of the compound effect on cell proliferation, human cell lines were seeded in 96-well plates at a density of 5.0 × 10^3 (HCT116, MCF-7, PANC-1, A375, and CCD-18Co) cells per well, for 24 h. Cells were then treated with serial dilutions of the compound (ranging from 0.63 to 30 µM), for an additional 48 h incubation period. The growth inhibitory effects were assessed by SRB assay, as described in [58], and the half-maximal inhibitory concentration (IC50 values) were determined for each cell line using the GraphPad Prism software version 7.0 (La Jolla, CA, USA). Culture medium containing a maximum of 0.05% dimethyl sulfoxide (DMSO) was used as negative control.

[2] = test system: CCD-18Co cells (non-tumorigenic colon); assay: Sulforhodamine B (SRB) antiproliferative assay, CCD-18Co; type: cell-based; conditions: Homo sapiens, CCD-18Co non-tumorigenic, 48 h, mean ± SEM of four to six independent experiments
Description: as §1, §2, §3

[3] = test system: MCF-7 cells (breast adenocarcinoma); assay: Sulforhodamine B (SRB) antiproliferative assay, MCF-7; type: cell-based; conditions: Homo sapiens, MCF7, MCF-7, 48 h, mean ± SEM of four to six independent experiments
Description: as §1, §2, §3

[4] = test system: A375 cells (melanoma); assay: Sulforhodamine B (SRB) antiproliferative assay, A375; type: cell-based; conditions: Homo sapiens, A-375, A375, 48 h, mean ± SEM of four to six independent experiments
Description: as §1, §2, §3

[5] = test system: PANC-1 cells (pancreatic ductal adenocarcinoma); assay: Sulforhodamine B (SRB) antiproliferative assay, PANC-1; type: cell-based, human; conditions: Homo sapiens; PANC-1, 48 h, SRB; mean ± SEM of four to six independent experiments
Description: as §1, §2, §3

Structure (SMILES)	IC50 [1] [µM]	IC50 [2] [µM]	IC50 [3] [µM]	IC50 [4] [µM]	IC50 [5] [µM]
C=C1CC[C@@H]2[C@](C)(CO)[C@H](O)CC[C@@]2(C)[C@@H]1C/C=C1/C(=O)OC[C@H]1O [Compound 1, andrographolide]	5.1 ± 1.5	6.2 ± 1.1	13.5 ± 0.5	4 ± 0.1	3.1 ± 0.1
C=C1CC[C@@H]2[C@](C)(COC(C)=O)[C@H](OC(C)=O)CC[C@@]2(C)[C@@H]1C/C=C1/C(=O)OC[C@H]1OC(C)=O [Compound 2, 3,14,19-Triacetyl Andrographolide]	1.4 ± 0.1	5.6 ± 1.3	4.9 ± 0.1	1.2 ± 0.2	1.9 ± 0.2
C=C1CC[C@@H]2[C@](C)(COC(C)=O)[C@H](OC(C)=O)CC[C@@]2(C)[C@@H]1C[C@@H](N=[N+]=[N-])C1=CCOC1=O [Compound 3, (12R)-azido-3,19-diacetoxy-14-deoxy-andrographolide]	7.9 ± 2.1	3.8 ± 0.7	6.6 ± 0.1	1.3 ± 0.1	1.9 ± 0.1
C=C1CC[C@@H]2[C@](C)(COC(C)=O)[C@H](OC(C)=O)CC[C@@]2(C)[C@@H]1C[C@H](N=[N+]=[N-])C1=CCOC1=O [Compound 4, (12S)-azido-3,19-diacetoxy-14-deoxy-andrographolide]	1.5 ± 0.2	2.2 ± 0.8	6.9 ± 0.8	1.2 ± 0.2	3 ± 0.2
C=C1CC[C@@H]2[C@](C)(COC(C)=O)[C@H](OC(C)=O)CC[C@@]2(C)[C@@H]1C[C@H](C1=CCOC1=O)n1cc(C(C)(C)O)nn1 [Compound 5, (12R)-4-(2-methyl-2-ol)-1,2,3-triazole-3,19-diacetoxy-14-deoxy-andrographolide]	8.4 ± 1.1	7.1 ± 2.6	25 ± 3	7.7 ± 1.3	8.5 ± 1
C=C1CC[C@@H]2[C@](C)(COC(C)=O)[C@H](OC(C)=O)CC[C@@]2(C)[C@@H]1C[C@H](C1=CCOC1=O)n1cc(C(=O)OCC)nn1 [Compound 6, (12R)-4-propriolate-1,2,3-triazole-3,19-diacetoxy-14-deoxy-andrographolide]	1.2 ± 0.1	4.4 ± 0.2	3.8 ± 0.2	1.3 ± 0.3	3.4 ± 0.9
C=C1CC[C@@H]2[C@](C)(COC(C)=O)[C@H](OC(C)=O)CC[C@@]2(C)[C@@H]1C[C@H](C1=CCOC1=O)n1cc(CNC(=O)OC(C)(C)C)nn1 [Compound 7, (12R)-4-(tert-butylmethyl carbamate)-1,2,3-triazole-3,19-diacetoxy-14-deoxy-andrographolide]	1.6 ± 0.4	12.9 ± 2.2	18 ± 0.1	3.6 ± 0.9	4.1 ± 0.3
C=C1CC[C@@H]2[C@](C)(COC(C)=O)[C@H](OC(C)=O)CC[C@@]2(C)[C@@H]1C[C@H](C1=CCOC1=O)n1cc(Cc2ccccc2)nn1 [Compound 8, (12R)-4-benzyl-1,2,3-triazole-3,19-diacetoxy-14-deoxy-andrographolide]	2.1 ± 0.6	8.7 ± 1.9	15.5 ± 0.5	23 ± 2	3.1 ± 0.4
C=C1CC[C@@H]2[C@](C)(COC(C)=O)[C@H](OC(C)=O)CC[C@@]2(C)[C@@H]1C[C@@H](C1=CCOC1=O)n1cc(Cc2ccccc2)nn1 [Compound 9, (12S)-4-benzyl-1,2,3-triazole-3,19-diacetoxy-14-deoxy andrographolide]	1.9 ± 0.6	3.8 ± 0.9	8.1 ± 0.1	2.1 ± 0.3	2 ± 0.1
C=C1CC[C@@H]2[C@](C)(COC(C)=O)[C@H](OC(C)=O)CC[C@@]2(C)[C@@H]1C[C@H](C1=CCOC1=O)n1cc(-c2ccccc2)nn1 [Compound 10, (12R)-4-phenyl-1,2,3-triazole-3,19-diacetoxy-14-deoxy-andrographolide]	2.2 ± 0.1	7.2 ± 0.6	7.8 ± 0.8	7.7 ± 1	3.8 ± 0.7
C=C1CC[C@@H]2[C@](C)(COC(C)=O)[C@H](OC(C)=O)CC[C@@]2(C)[C@@H]1C[C@@H](C1=CCOC1=O)n1cc(-c2ccccc2)nn1 [Compound 11, (12S)-4-phenyl-1,2,3-triazole-3,19-diacetoxy-14-deoxy-andrographolide]	1.9 ± 0.3	3.3 ± 0.4	4.2 ± 0.8	8.2 ± 0.1	3.4 ± 0.6
C=C1CC[C@@H]2[C@](C)(COC(C)=O)[C@H](OC(C)=O)CC[C@@]2(C)[C@@H]1C[C@H](C1=CCOC1=O)n1cc(-c2ccc(N)cc2)nn1 [Compound 13, (12R)-4-aniline-1,2,3-triazole-3,19-diacetoxy-14-deoxy-andrographolide]	4.8 ± 1.3	30 ± 2	26 ± 3	6.8 ± 0.9	6.5 ± 0.4
C=C1CC[C@@H]2[C@](C)(COC(C)=O)[C@H](OC(C)=O)CC[C@@]2(C)[C@@H]1C[C@H](C1=CCOC1=O)n1cc(-c2ccc(C#N)cc2)nn1 [Compound 14, (12R)-4-benzonitrile-1,2,3-triazole-3,19-diacetoxy-14-deoxy-andrographolide]	2 ± 0.6	3.7 ± 0.9	7.9 ± 0.6	1.7 ± 0.2	2.5 ± 0.3
C=C1CC[C@@H]2[C@](C)(COC(C)=O)[C@H](OC(C)=O)CC[C@@]2(C)[C@@H]1C[C@@H](C1=CCOC1=O)n1cc(-c2ccc(C#N)cc2)nn1 [Compound 15, (12S)-4-benzonitrile-1,2,3-triazole-3,19-diacetoxy-14-deoxy-andrographolide]	1.3 ± 0.1	6.2 ± 1.2	5.6 ± 0.2	1.2 ± 0.2	3.3 ± 0.9
C=C1CC[C@@H]2[C@](C)(COC(C)=O)[C@H](OC(C)=O)CC[C@@]2(C)[C@@H]1C[C@H](C1=CCOC1=O)n1cc(-c2ccc(OC)cc2)nn1 [Compound 16, (12R)-4-(4-methoxyphenyl)-1,2,3-triazole-3,19-diacetoxy-14-deoxy-andrographolide]	2.3 ± 0.9	6.8 ± 1	9.3 ± 0.1	1.5 ± 0.2	2.3 ± 0.2
C=C1CC[C@@H]2[C@](C)(COC(C)=O)[C@H](OC(C)=O)CC[C@@]2(C)[C@@H]1C[C@@H](C1=CCOC1=O)n1cc(-c2ccc(OC)cc2)nn1 [Compound 17, (12S)-4-(4-methoxyphenyl)-1,2,3-triazole-3,19-diacetoxy-14-deoxy-andrographolide]	1.7 ± 0.5	4.4 ± 0.9	5.6 ± 0.2	0.9 ± 0.1	2.1 ± 0.1
C=C1CC[C@@H]2[C@](C)(COC(C)=O)[C@H](OC(C)=O)CC[C@@]2(C)[C@@H]1C[C@H](C1=CCOC1=O)n1cc(-c2ccc(OC(F)(F)F)cc2)nn1 [Compound 18]	3.7 ± 0.5	5.1 ± 0.1	9.5 ± 0.5	6.6 ± 0.8	3.5 ± 1.6
C=C1CC[C@@H]2[C@](C)(COC(C)=O)[C@H](OC(C)=O)CC[C@@]2(C)[C@@H]1C[C@@H](C1=CCOC1=O)n1cc(-c2ccc(OC(F)(F)F)cc2)nn1 [Compound 19]	4.1 ± 0.2	6.6 ± 0.9	7.9 ± 1.5	7.1 ± 0.1	3.1 ± 0.8
C=C1CC[C@@H]2[C@](C)(COC(C)=O)[C@H](OC(C)=O)CC[C@@]2(C)[C@@H]1C[C@H](C1=CCOC1=O)n1cc(-c2ccc(-c3ccccc3)cc2)nn1 [Compound 20]	1.4 ± 0.3	3.5 ± 0.3	28 ± 2	3.3 ± 1.3	3 ± 1.1
C=C1CC[C@@H]2[C@](C)(COC(C)=O)[C@H](OC(C)=O)CC[C@@]2(C)[C@@H]1C[C@@H](C1=CCOC1=O)n1cc(-c2ccc(-c3ccccc3)cc2)nn1 [Compound 21]	1.2 ± 0.2	4.4 ± 0.8	10.4 ± 0.7	1.3 ± 0.3	3.5 ± 0.3
C=C1CC[C@@H]2[C@](C)(COC(C)=O)[C@H](OC(C)=O)CC[C@@]2(C)[C@@H]1C[C@H](C1=CCOC1=O)n1cc(-c2ccncc2)nn1 [Compound 22, (12R)-4-(4-pyridine)-1,2,3-triazole-3,19-diacetoxy-14-deoxy-andrographolide]	1.6 ± 0.3	3.2 ± 0.9	5.9 ± 0.1	1.3 ± 0.2	5 ± 0.4
C=C1CC[C@@H]2[C@](C)(COC(C)=O)[C@H](OC(C)=O)CC[C@@]2(C)[C@@H]1C[C@@H](C1=CCOC1=O)n1cc(-c2ccncc2)nn1 [Compound 23, (12S)-4-(4-pyridine)-1,2,3-triazole-3,19-diacetoxy-14-deoxy-andrographolide]	2.8 ± 0.8	4.1 ± 0.9	11 ± 0.2	3.3 ± 1	6.3 ± 1.9
